In article PMC9494960, “Antiamoebic Activity of Imidazothiazole Derivatives against Opportunistic Pathogen Acanthamoeba castellanii” (Antibiotics, 2022):

Experiments:
[1] = tested on: A. castellanii genotype T4 (ATCC 50492) trophozoites; assay: Amoebicidal assay (Trypan blue exclusion, haemocytometer counting); type: cell-based, Acanthamoeba castellanii; settings: for Amoebicidal Activity Inhibition % ± SEM: 50 µM concentration, Supplementary Table S1; for IC50: tested at 12.5, 25, 50 and 100 µM against A. castellanii; for amoebicidal effects / antiamoebic activity against A. castellanii: 50 µM, 24 h, 30 °C
Procedure: A. castellanii genotype T4 (ATCC 50492) trophozoites were used in this study. The amoebae were axenically cultivated at 30 °C in T-75 cm^3 culture flask using a proteose-peptone yeast extract-glucose (PYG) broth culture. Upon confluency, amoeba cultured flask was placed on ice for 10 min followed by gently tapping to dislodge the adhered trophozoites. Next, culture was centrifuged at 3000× g for 5 min. The supernatant was discarded and the pellet was re-suspended in 1 mL of Roswell Park Memorial Institute (RPMI) media. Finally, amoebae were counted via haemocytometer microscopically and the desired initial inoculum (5 × 10^5) was adjusted and used in different assays. Different molecules were tested against A. castellanii to examine their antiamoebic effects as previously reported. Briefly, A. castellanii (5 × 10^5) were incubated with 50 µM of the tested compounds for 24 h at 30 °C with a final assays volume of 0.5 mL in a 24-well plate. For controls, amoebae cultured in RPMI alone and with 0.25% sodium dodecyl sulfate (SDS) was taken as negative and positive control, respectively. Finally, each well was stained with Trypan blue (0.1%) and viable amoebae trophozoites were enumerated by haemocytometer. In some trails, these compounds were tested at different concentrations (12.5, 25, 50 and 100 µM) to determine their 50% inhibitory concentration (IC50) against A. castellanii.

human cell lines = assay: MTT assay (EC50/CC50 and MNTD90); type: cell-based; settings: for CC50: 50% effective/cytotoxic concentration (CC50), tested at 12.5–100 µM; for EC90: Maximum Non-Toxic Dose, read-out: MNTD/EC90

Row | Structure (SMILES) | Amoebicidal Activity Inhibition % ± SEM [1] | CC50 (human cell lines) | EC90 (human cell lines) | IC50 [1] | amoebicidal effects / antiamoebic activity against A. castellanii [1]
1 | O=C(NCCNc1nccc(-c2c(-c3ccc(F)cc3)nc3sccn23)n1)c1ccccc1O [Compound 1g] | 42.20% ± 3.29% | – | – | – | –
2 | COc1cccc(-c2nc3sccn3c2-c2ccnc(NCCNC(=O)Nc3cc(C(F)(F)F)cc(C(F)(F)F)c3)n2)c1 [Compound 1n] | 51.05% ± 2.36% | 648 µM | 16.4 µM | 47.5 µM | –
3 | O=C(NCCNc1nccc(-c2c(-c3cccc(O)c3)nc3sccn23)n1)c1cc(C(F)(F)F)cc(C(F)(F)F)c1 [Compound 1za] | 15.71% ± 6.61% | – | – | – | did not show promising antiamoebic activity
4 | Cc1cn(-c2cc(C(=O)NCCNc3nccc(-c4c(-c5ccc(F)cc5)nc5sccn45)n3)cc(C(F)(F)F)c2)cn1 [Compound 1j] | 42.34% ± 3.81% | – | – | – | –
5 | O=C(NCCNc1nccc(-c2c(-c3ccc(F)cc3)nc3sccn23)n1)Nc1cccc(C(F)(F)F)c1 [Compound 1b] | 12.86% ± 5.93% | – | – | – | –
6 | COc1cccc(-c2nc3sccn3c2-c2ccnc(NCCNC(=O)c3ccc(N4CCOCC4)c(C(F)(F)F)c3)n2)c1 [Compound 1s] | 39.10% ± 2.31% | – | – | – | –
7 | O=C(NCCNc1nccc(-c2c(-c3cccc(O)c3)nc3sccn23)n1)c1cc(N2CCOCC2)cc(C(F)(F)F)c1 [Compound 1zc] | 14.79% ± 3.19% | – | – | – | did not show promising antiamoebic activity
8 | O=C(NCCNc1nccc(-c2c(-c3cccc(O)c3)nc3sccn23)n1)Nc1ccccc1 [Compound 1u] | 12.66% ± 5.04% | – | – | – | did not show promising antiamoebic activity
9 | O=C(NCCNc1nccc(-c2c(-c3cccc(O)c3)nc3sccn23)n1)c1ccccc1O [Compound 1y] | 12.50% ± 4.68% | – | – | – | did not show promising antiamoebic activity
10 | O=C(NCCNc1nccc(-c2c(-c3cccc(O)c3)nc3sccn23)n1)c1ccccc1 [Compound 1x] | 48.02% ± 3.69% | – | 102 µM | 54 µM | –
11 | O=C(NCCNc1nccc(-c2c(-c3ccc(F)cc3)nc3sccn23)n1)c1cc(N2CCOCC2)cc(C(F)(F)F)c1 [Compound 1k] | 16.58% ± 6.08% | – | – | – | did not show promising antiamoebic activity
12 | O=C(NCCNc1nccc(-c2c(-c3ccc(F)cc3)nc3sccn23)n1)Nc1cc(C(F)(F)F)cc(C(F)(F)F)c1 [Compound 1c] | 17.28% ± 1.88% | – | – | – | –
13 | COc1cccc(-c2nc3sccn3c2-c2ccnc(NCCNC(=O)c3ccccc3O)n2)c1 [Compound 1p] | 36.42% ± 5.43% | – | – | – | –
14 | COc1cccc(-c2nc3sccn3c2-c2ccnc(NCCNC(=O)c3ccccc3)n2)c1 [Compound 1o] | 11.78% ± 11.34% | – | – | – | did not show promising antiamoebic activity
15 | O=C(NCCNc1nccc(-c2c(-c3ccc(F)cc3)nc3sccn23)n1)c1cccc(C(F)(F)F)c1 [Compound 1h] | 38.16% ± 3.74% | – | – | – | –
16 | O=C(NCCNc1nccc(-c2c(-c3cccc(O)c3)nc3sccn23)n1)Nc1cccc(C(F)(F)F)c1 [Compound 1v] | 44.86% ± 2.98% | 222 µM | 5.36 µM | 60 µM | –
17 | COc1cccc(-c2nc3sccn3c2-c2ccnc(NCCNC(=O)c3cc(N4CCOCC4)cc(C(F)(F)F)c3)n2)c1 [Compound 1t] | 17.46% ± 3.75% | – | – | – | did not show promising antiamoebic activity
18 | O=C(NCCNc1nccc(-c2c(-c3ccc(F)cc3)nc3sccn23)n1)c1ccc2c(c1)OCCO2 [Compound 1f] | 40.50% ± 4.84% | – | – | – | –
19 | Cc1ccc(C(=O)NCCNc2nccc(-c3c(-c4ccc(F)cc4)nc4sccn34)n2)cc1 [Compound 1d] | 39.50% ± 1.53% | – | – | – | –
